Converted amounts (≈) assume the structure as drawn.
Experiments:
Format in all cases: functional
Pseudomonas aeruginosa [1] = assay: Antibacterial activity against Pseudomonas aeruginosa MTCC 424 at 200 ug/ml after 18 hr by cup-plate method; conditions: MTCC 424, 18 h, read-out: DIZ
Bacillus pumilus [2] = assay: Antibacterial activity against Bacillus pumilus MTCC 1456 at 200 ug/ml after 18 hr by cup-plate method; conditions: MTCC 1456, 18 h, read-out: DIZ
Escherichia coli [3] = assay: Antibacterial activity against Escherichia coli MTCC 1573 after 24 hr by broth dilution method; conditions: MTCC 1573, 24 h
Penicillium chrysogenum [4] = assay: Antifungal activity against Penicillium chrysogenum MTCC 161 after 24 hr by broth dilution method; conditions: MTCC 161, 24 h
Penicillium chrysogenum [5] = assay: Antifungal activity against Penicillium chrysogenum MTCC 161 at 500 ug/ml after 18 hr by cup-plate method; conditions: MTCC 161, 18 h, read-out: DIZ
Aspergillus niger [6] = assay: Antifungal activity against Aspergillus niger MTCC 2546 at 1000 ug/ml after 18 hr by cup-plate method; conditions: MTCC 2546, 18 h, read-out: DIZ
Bacillus subtilis [7] = assay: Antibacterial activity against Bacillus subtilis MTCC 441 at 200 ug/ml after 18 hr by cup plate method; conditions: MTCC 441, 18 h, read-out: DIZ
Pseudomonas fluorescens [8] = assay: Antibacterial activity against Pseudomonas fluorescens MTCC 2421 at 200 ug/ml after 18 hr by cup-plate method; conditions: MTCC 2421, 18 h, read-out: DIZ
Penicillium chrysogenum [9] = assay: Antifungal activity against Penicillium chrysogenum MTCC 161 at 1500 ug/ml after 18 hr by cup-plate method; conditions: MTCC 161, 18 h, read-out: DIZ
Staphylococcus aureus [10] = assay: Antibacterial activity against Staphylococcus aureus MTCC 1430 at 1000 ug/ml after 18 hr by cup-plate method; conditions: MTCC 1430, 18 h, read-out: DIZ
Bacillus pumilus [11] = assay: Antibacterial activity against Bacillus pumilus MTCC 1456 at 100 ug/ml after 18 hr by cup-plate method; conditions: MTCC 1456, 18 h, read-out: DIZ
Penicillium chrysogenum [12] = assay: Antifungal activity against Penicillium chrysogenum MTCC 161 at 1000 ug/ml after 18 hr by cup-plate method; conditions: MTCC 161, 18 h, read-out: DIZ
Pseudomonas fluorescens [13] = assay: Antibacterial activity against Pseudomonas fluorescens MTCC 2421 at 1000 ug/ml after 18 hr by cup-plate method; conditions: MTCC 2421, 18 h, read-out: DIZ
Pseudomonas aeruginosa [14] = assay: Antibacterial activity against Pseudomonas aeruginosa MTCC 424 at 100 ug/ml after 18 hr by cup-plate method; conditions: MTCC 424, 18 h, read-out: DIZ
Pseudomonas fluorescens [15] = assay: Antibacterial activity against Pseudomonas fluorescens MTCC 2421 after 24 hr by broth dilution method; conditions: MTCC 2421, 24 h
Micrococcus luteus [16] = assay: Antibacterial activity against Micrococcus luteus MTCC 1538 at 1500 ug/ml after 18 hr by cup-plate method; conditions: MTCC 1538, 18 h, read-out: DIZ
Penicillium chrysogenum [17] = assay: Antifungal activity against Penicillium chrysogenum MTCC 161 at 100 ug/ml after 18 hr by cup-plate method; conditions: MTCC 161, 18 h, read-out: DIZ
Bacillus pumilus [18] = assay: Antibacterial activity against Bacillus pumilus MTCC 1456 at 1000 ug/ml after 18 hr by cup-plate method; conditions: MTCC 1456, 18 h, read-out: DIZ
Pseudomonas fluorescens [19] = assay: Antibacterial activity against Pseudomonas fluorescens MTCC 2421 at 500 ug/ml after 18 hr by cup-plate method; conditions: MTCC 2421, 18 h, read-out: DIZ
Micrococcus luteus [20] = assay: Antibacterial activity against Micrococcus luteus MTCC 1538 after 24 hr by broth dilution method; conditions: MTCC 1538, 24 h
Pseudomonas aeruginosa [21] = assay: Antibacterial activity against Pseudomonas aeruginosa MTCC 424 at 500 ug/ml after 18 hr by cup-plate method; conditions: MTCC 424, 18 h, read-out: DIZ
Penicillium chrysogenum [22] = assay: Antifungal activity against Penicillium chrysogenum MTCC 161 at 200 ug/ml after 18 hr by cup-plate method; conditions: MTCC 161, 18 h, read-out: DIZ
Bacillus subtilis [23] = assay: Antibacterial activity against Bacillus subtilis MTCC 441 after 24 hr by broth dilution method; conditions: MTCC 441, 24 h
Bacillus subtilis [24] = assay: Antibacterial activity against Bacillus subtilis MTCC 441 at 100 ug/ml after 18 hr by cup plate method; conditions: MTCC 441, 18 h, read-out: DIZ
Staphylococcus aureus [25] = assay: Antibacterial activity against Staphylococcus aureus MTCC 1430 after 24 hr by broth dilution method; conditions: MTCC 1430, 24 h
Pseudomonas aeruginosa [26] = assay: Antibacterial activity against Pseudomonas aeruginosa MTCC 424 after 24 hr by broth dilution method; conditions: MTCC 424, 24 h
Escherichia coli [27] = assay: Antibacterial activity against Escherichia coli MTCC 1573 at 200 ug/ml after 18 hr by cup-plate method; conditions: MTCC 1573, 18 h, read-out: DIZ
Escherichia coli [28] = assay: Antibacterial activity against Escherichia coli MTCC 1573 at 100 ug/ml after 18 hr by cup-plate method; conditions: MTCC 1573, 18 h, read-out: DIZ
Micrococcus luteus [29] = assay: Antibacterial activity against Micrococcus luteus MTCC 1538 at 1000 ug/ml after 18 hr by cup-plate method; conditions: MTCC 1538, 18 h, read-out: DIZ
Pseudomonas fluorescens [30] = assay: Antibacterial activity against Pseudomonas fluorescens MTCC 2421 at 100 ug/ml after 18 hr by cup-plate method; conditions: MTCC 2421, 18 h, read-out: DIZ
Bacillus pumilus [31] = assay: Antibacterial activity against Bacillus pumilus MTCC 1456 at 1500 ug/ml after 18 hr by cup-plate method; conditions: MTCC 1456, 18 h, read-out: DIZ
Staphylococcus aureus [32] = assay: Antibacterial activity against Staphylococcus aureus MTCC 1430 at 500 ug/ml after 18 hr by cup-plate method; conditions: MTCC 1430, 18 h, read-out: DIZ
Bacillus pumilus [33] = assay: Antibacterial activity against Bacillus pumilus MTCC 1456 after 24 hr by broth dilution method; conditions: MTCC 1456, 24 h
Pseudomonas fluorescens [34] = assay: Antibacterial activity against Pseudomonas fluorescens MTCC 2421 at 1500 ug/ml after 18 hr by cup-plate method; conditions: MTCC 2421, 18 h, read-out: DIZ
Aspergillus niger [35] = assay: Antifungal activity against Aspergillus niger MTCC 2546 at 100 ug/ml after 18 hr by cup-plate method; conditions: MTCC 2546, 18 h, read-out: DIZ
Micrococcus luteus [36] = assay: Antibacterial activity against Micrococcus luteus MTCC 1538 at 100 ug/ml after 18 hr by cup-plate method; conditions: MTCC 1538, 18 h, read-out: DIZ
Staphylococcus aureus [37] = assay: Antibacterial activity against Staphylococcus aureus MTCC 1430 at 1500 ug/ml after 18 hr by cup-plate method; conditions: MTCC 1430, 18 h, read-out: DIZ
Micrococcus luteus [38] = assay: Antibacterial activity against Micrococcus luteus MTCC 1538 at 200 ug/ml after 18 hr by cup-plate method; conditions: MTCC 1538, 18 h, read-out: DIZ
Pseudomonas aeruginosa [39] = assay: Antibacterial activity against Pseudomonas aeruginosa MTCC 424 at 1500 ug/ml after 18 hr by cup-plate method; conditions: MTCC 424, 18 h, read-out: DIZ
Escherichia coli [40] = assay: Antibacterial activity against Escherichia coli MTCC 1573 at 1500 ug/ml after 18 hr by cup-plate method; conditions: MTCC 1573, 18 h, read-out: DIZ
Pseudomonas aeruginosa [41] = assay: Antibacterial activity against Pseudomonas aeruginosa MTCC 424 at 1000 ug/ml after 18 hr by cup-plate method; conditions: MTCC 424, 18 h, read-out: DIZ
Micrococcus luteus [42] = assay: Antibacterial activity against Micrococcus luteus MTCC 1538 at 500 ug/ml after 18 hr by cup-plate method; conditions: MTCC 1538, 18 h, read-out: DIZ
Bacillus subtilis [43] = assay: Antibacterial activity against Bacillus subtilis MTCC 441 at 1000 ug/ml after 18 hr by cup plate method; conditions: MTCC 441, 18 h, read-out: DIZ
Bacillus pumilus [44] = assay: Antibacterial activity against Bacillus pumilus MTCC 1456 at 500 ug/ml after 18 hr by cup-plate method; conditions: MTCC 1456, 18 h, read-out: DIZ
Aspergillus niger [45] = assay: Antifungal activity against Aspergillus niger MTCC 2546 at 200 ug/ml after 18 hr by cup-plate method; conditions: MTCC 2546, 18 h, read-out: DIZ
Bacillus subtilis [46] = assay: Antibacterial activity against Bacillus subtilis MTCC 441 at 1500 ug/ml after 18 hr by cup plate method; conditions: MTCC 441, 18 h, read-out: DIZ
Aspergillus niger [47] = assay: Antifungal activity against Aspergillus niger MTCC 2546 after 24 hr by broth dilution method; conditions: MTCC 2546, 24 h
Aspergillus niger [48] = assay: Antifungal activity against Aspergillus niger MTCC 2546 at 1500 ug/ml after 18 hr by cup-plate method; conditions: MTCC 2546, 18 h, read-out: DIZ
Escherichia coli [49] = assay: Antibacterial activity against Escherichia coli MTCC 1573 at 1000 ug/ml after 18 hr by cup-plate method; conditions: MTCC 1573, 18 h, read-out: DIZ
Bacillus subtilis [50] = assay: Antibacterial activity against Bacillus subtilis MTCC 441 at 500 ug/ml after 18 hr by cup plate method; conditions: MTCC 441, 18 h, read-out: DIZ
Aspergillus niger [51] = assay: Antifungal activity against Aspergillus niger MTCC 2546 at 500 ug/ml after 18 hr by cup-plate method; conditions: MTCC 2546, 18 h, read-out: DIZ
Escherichia coli [52] = assay: Antibacterial activity against Escherichia coli MTCC 1573 at 500 ug/ml after 18 hr by cup-plate method; conditions: MTCC 1573, 18 h, read-out: DIZ
Staphylococcus aureus [53] = assay: Antibacterial activity against Staphylococcus aureus MTCC 1430 at 200 ug/ml after 18 hr by cup-plate method; conditions: MTCC 1430, 18 h, read-out: DIZ

## C(=N\c1nc[nH]n1)/c1ccco1
Pseudomonas aeruginosa [1]
  zone of inhibition at 200 µg/mL: 11 mm
Bacillus pumilus [2]
  zone of inhibition at 200 µg/mL: 15 mm
Escherichia coli [3]
  MIC: 400 µg/mL (≈ 2470 µM)
Penicillium chrysogenum [4]
  MIC: 500 µg/mL (≈ 3080 µM)
Penicillium chrysogenum [5]
  zone of inhibition at 500 µg/mL: 17 mm
Aspergillus niger [6]
  zone of inhibition at 1000 µg/mL: 19 mm
Bacillus subtilis [7]
  zone of inhibition at 200 µg/mL: 15 mm
Pseudomonas fluorescens [8]
  zone of inhibition at 200 µg/mL: 16 mm
Penicillium chrysogenum [9]
  zone of inhibition at 1500 µg/mL: 21 mm
Staphylococcus aureus [10]
  zone of inhibition at 1000 µg/mL: 15 mm
Bacillus pumilus [11]
  zone of inhibition at 100 µg/mL: 11 mm
Penicillium chrysogenum [12]
  zone of inhibition at 1000 µg/mL: 18 mm
Pseudomonas fluorescens [13]
  zone of inhibition at 1000 µg/mL: 20 mm
Pseudomonas aeruginosa [14]
  zone of inhibition at 100 µg/mL: 10 mm
Pseudomonas fluorescens [15]
  MIC: 300 µg/mL (≈ 1850 µM)
Micrococcus luteus [16]
  zone of inhibition at 1500 µg/mL: 22 mm
Penicillium chrysogenum [17]
  zone of inhibition at 100 µg/mL: 11 mm
Bacillus pumilus [18]
  zone of inhibition at 1000 µg/mL: 17 mm
Pseudomonas fluorescens [19]
  zone of inhibition at 500 µg/mL: 18 mm
Micrococcus luteus [20]
  MIC: 300 µg/mL (≈ 1850 µM)
Pseudomonas aeruginosa [21]
  zone of inhibition at 500 µg/mL: 13 mm
Penicillium chrysogenum [22]
  zone of inhibition at 200 µg/mL: 15 mm
Bacillus subtilis [23]
  MIC: 300 µg/mL (≈ 1850 µM)
Bacillus subtilis [24]
  zone of inhibition at 100 µg/mL: 11 mm
Staphylococcus aureus [25]
  MIC: 600 µg/mL (≈ 3700 µM)
Pseudomonas aeruginosa [26]
  MIC: 500 µg/mL (≈ 3080 µM)
Escherichia coli [27]
  zone of inhibition at 200 µg/mL: 13 mm
Escherichia coli [28]
  zone of inhibition at 100 µg/mL: 10 mm
Micrococcus luteus [29]
  zone of inhibition at 1000 µg/mL: 21 mm
Pseudomonas fluorescens [30]
  zone of inhibition at 100 µg/mL: 13 mm
Bacillus pumilus [31]
  zone of inhibition at 1500 µg/mL: 20 mm
Staphylococcus aureus [32]
  zone of inhibition at 500 µg/mL: 14 mm
Bacillus pumilus [33]
  MIC: 300 µg/mL (≈ 1850 µM)
Pseudomonas fluorescens [34]
  zone of inhibition at 1500 µg/mL: 23 mm
Aspergillus niger [35]
  zone of inhibition at 100 µg/mL: 11 mm
Micrococcus luteus [36]
  zone of inhibition at 100 µg/mL: 12 mm
Staphylococcus aureus [37]
  zone of inhibition at 1500 µg/mL: 18 mm
Micrococcus luteus [38]
  zone of inhibition at 200 µg/mL: 16 mm
Pseudomonas aeruginosa [39]
  zone of inhibition at 1500 µg/mL: 21 mm
Escherichia coli [40]
  zone of inhibition at 1500 µg/mL: 25 mm
Pseudomonas aeruginosa [41]
  zone of inhibition at 1000 µg/mL: 15 mm
Micrococcus luteus [42]
  zone of inhibition at 500 µg/mL: 18 mm
Bacillus subtilis [43]
  zone of inhibition at 1000 µg/mL: 17 mm
Bacillus pumilus [44]
  zone of inhibition at 500 µg/mL: 16 mm
Aspergillus niger [45]
  zone of inhibition at 200 µg/mL: 16 mm
Bacillus subtilis [46]
  zone of inhibition at 1500 µg/mL: 22 mm
Aspergillus niger [47]
  MIC: 500 µg/mL (≈ 3080 µM)
Aspergillus niger [48]
  zone of inhibition at 1500 µg/mL: 23 mm
Escherichia coli [49]
  zone of inhibition at 1000 µg/mL: 15 mm
Bacillus subtilis [50]
  zone of inhibition at 500 µg/mL: 16 mm
Aspergillus niger [51]
  zone of inhibition at 500 µg/mL: 18 mm
Escherichia coli [52]
  zone of inhibition at 500 µg/mL: 14 mm
Staphylococcus aureus [53]
  zone of inhibition at 200 µg/mL: 12 mm
